Experimental data from ChEMBL document CHEMBL1154256, “Inhibition of NF-kappaB activation and iNOS induction by ent-kaurane diterpenoids in LPS-stimulated RAW264.7 murine macrophages” (J Nat Prod, 2009).
Active and inactive are the calls of the source. The calls are words filed in the database; no cut-off is given here.

Experiments:
RAW264.7 [1] = test: Inhibition of NF-kappaB activation in LPS-stimulated mouse RAW264.7 cells at 1 uM after 24 hrs by Western blotting; assay type: cell-based
[2] = (§1) Cytotoxicity against mouse RAW264.7 cells assessed as cell viability at 5 uM after 24 hrs by MTT assay; assay type: cell-based; conditions: RAW264.7 cells, read-out: Activity
RAW264.7 [3] = test: as §1; assay type: cell-based; conditions: raw264.7, 24 h, 5 µM
[4] = (§2) Cytotoxicity against mouse RAW264.7 cells assessed as cell viability at 10 uM after 24 hrs by MTT assay; assay type: cell-based; conditions: RAW264.7 cells, read-out: Activity
[5] = (§3) Cytotoxicity against mouse RAW264.7 cells assessed as cell viability at 25 uM after 24 hrs by MTT assay; assay type: cell-based; conditions: RAW264.7 cells, read-out: Activity
RAW264.7 [6] = test: Cytotoxicity against mouse RAW264.7 cells after 24 hrs by MTT assay; assay type: cell-based; conditions: RAW264.7, 24 h
RAW264.7 [7] = test: Antiinflammatory activity against mouse RAW264.7 cells assessed as inhibition of LPS-induced nitrite accumulation after 24 hrs by Griess reagent method; assay type: functional, cell-based; conditions: for IC50: RAW264.7, 24 h
RAW264.7 [8] = test: Antiinflammatory activity against mouse RAW264.7 cells assessed as inhibition of LPS-induced iNOS expression at 0.1 to 5 uM after 24 hrs by Western blotting; assay type: functional, cell-based
RAW264.7 [9] = test: Inhibition of iNOS mRNA expression in LPS-stimulated mouse RAW264.7 cells at 5 uM after 8 hrs by RT-PCR; assay type: functional, cell-based
[10] = Inhibition of NF-kappaB activation in LPS-stimulated mouse RAW264.7 cells assessed as relative luciferase activity after 24 hrs by dual reporter gene assay; assay type: cell-based; conditions: RAW264.7, 24 h
RAW264.7 [11] = test: Inhibition of NF-kappaB p65 subunit translocation into nucleus in LPS-stimulated mouse RAW264.7 cells assessed as p65 protein level at 5 uM treated after LPS-stimulation for 24 hrs measured after 60 mins by Western blotting; assay type: functional, cell-based
RAW264.7 [12] = test: Inhibition of NF-kappaB p65 subunit translocation into nucleus in LPS-stimulated mouse RAW264.7 cells assessed as p65 protein level at 1 uM pretreated for 1 hr before LPS challenge after 60 mins immunofluorescence microscopy; assay type: functional, cell-based
RAW264.7 [13] = test: as §3; assay type: cell-based; conditions: raw264.7, 24 h, 25 µM
[14] = biological target: T1, Inhibitor of nuclear factor kappa-B kinase subunit beta (Mus musculus) (UniProt O88351); test: Inhibition of LPS-stimulated IkappaB degradation in mouse RAW264.7 cells assessed as cellular IkappaB level at 5 uM treated after LPS-stimulation for 24 hrs measured after 60 mins by Western blotting; assay type: cell-based
T1 sequence (whole entry): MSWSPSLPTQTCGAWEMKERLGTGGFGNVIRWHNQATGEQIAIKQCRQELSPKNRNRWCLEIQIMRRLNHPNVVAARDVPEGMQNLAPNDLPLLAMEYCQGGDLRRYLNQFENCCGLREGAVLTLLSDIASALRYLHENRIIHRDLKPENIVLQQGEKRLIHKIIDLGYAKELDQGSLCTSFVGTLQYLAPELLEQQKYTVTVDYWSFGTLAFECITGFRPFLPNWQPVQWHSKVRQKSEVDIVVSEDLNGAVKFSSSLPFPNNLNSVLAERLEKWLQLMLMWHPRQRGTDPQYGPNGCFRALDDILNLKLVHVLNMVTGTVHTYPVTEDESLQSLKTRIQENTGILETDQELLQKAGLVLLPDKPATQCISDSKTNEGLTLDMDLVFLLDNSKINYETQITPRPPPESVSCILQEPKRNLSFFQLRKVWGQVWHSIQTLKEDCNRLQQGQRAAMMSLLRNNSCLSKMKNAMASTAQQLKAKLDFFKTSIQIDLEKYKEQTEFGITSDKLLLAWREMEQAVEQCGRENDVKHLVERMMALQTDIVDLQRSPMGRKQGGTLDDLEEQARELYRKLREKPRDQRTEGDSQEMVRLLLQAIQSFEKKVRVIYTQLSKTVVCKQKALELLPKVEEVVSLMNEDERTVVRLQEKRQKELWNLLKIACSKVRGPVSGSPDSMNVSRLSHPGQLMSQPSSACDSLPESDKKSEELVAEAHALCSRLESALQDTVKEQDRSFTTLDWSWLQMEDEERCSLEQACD

RAW264.7 [15] = test: as §2; assay type: cell-based; conditions: raw264.7, 24 h, 10 µM

| SMILES | inhibition (RAW264.7 [1]) | viability at 24 h, 5 µM [2] [%] | Activity (RAW264.7 [3]) | viability at 24 h, 10 µM [4] [%] | viability at 24 h, 25 µM [5] [%] | IC50 (RAW264.7 [6]) [µM] | inhibition (RAW264.7 [7]) | IC50 (RAW264.7 [7]) [µM] | inhibition (RAW264.7 [8]) | inhibition (RAW264.7 [9]) | IC50 [10] [µM] | Activity (RAW264.7 [11]) | Activity (RAW264.7 [12]) | Activity (RAW264.7 [13]) | Activity [14] | Activity (RAW264.7 [15]) |
| --- | --- | --- | --- | --- | --- | --- | --- | --- | --- | --- | --- | --- | --- | --- | --- | --- |
| C=C1C(=O)[C@@]23[C@@H]4O[C@H]5O[C@@]2(O)[C@@H](O)[C@@H]2C(C)(C)CCC[C@]52[C@@H]3CC[C@@H]14 [XEROPHILUSIN B] | Active | > 97.5 | Non-toxic | > 97.5 | > 97.5 | 10.1 | Dose-dependent effect | 0.225 | Active | Active | 0.7 | Active | Active |  |  |  |
| C=C1C(=O)[C@@]23[C@@H]4O[C@H]5O[C@@]2(O)[C@@H](O)[C@@H]2C(C)(C)CCC[C@]52[C@@H]3[C@@H](OC(C)=O)C[C@@H]14 [XEROPHILUSIN A] | Active | > 97.5 | Non-toxic | > 97.5 | > 97.5 | 11.3 | Dose-dependent effect | 0.6 | Active | Active | 1.8 | Active | Active |  |  |  |
| C=C1C(=O)[C@]23[C@H](O)[C@H]1C[C@H](OC(C)=O)[C@H]2[C@]12CCCC(C)(C)[C@H]1C(=O)[C@]3(O)[C@H]2O [XEROPHILUSIN F] | inactive | > 97.5 |  | > 97.5 | > 97.5 | 52.4 | Dose-dependent effect | 0.673 | Active | Active | 1.6 | Active | Active | Non-toxic | Active |  |
| C=C1C(=O)[C@]23[C@H](O)[C@H]1CC[C@H]2[C@]12CCC[C@@](C)(COC(C)=O)[C@H]1[C@H](O)[C@]3(O)OC2 [LONGIKAURIN B] | Active | > 97.5 |  | > 97.5 | > 97.5 | 44.8 | Dose-dependent effect | 0.435 | Active | Active | 1.2 | Active | Active |  |  | Non-toxic |
